Results taken from patent publication US20260306644A1, “ANTIBODY RECRUITING MOLECULES FOR THE TREATMENT OF CORONAVIRUS DISEASE-19” (priority 2023, published 2026).
“And” between values parts separate entries of the source, which are not always exact repeats. Identical values can stand only once.

target: SARS-CoV-2 Spike protein (Severe acute respiratory syndrome coronavirus 2, UniProt P0DTC2); experiment: Ternary binding of SARS-CoV-2 Spike protein (293T cells expressing Spike-GFP, IgG-AF647, flow cytometry); format: cell-based; conditions: 293T cells expressing Spike-GFP; IgG-AF647 10 μg/ml; repeat values/batches listed separately; read-out: SARS-CoV-2 Ternary binding EC50
Experimental: 293T cells stably expressing SARS-CoV-2 Spike-GFP protein on their surface were incubated with a concentration range of compound for 30 minutes at 37° C.-5% CO2 in Roswell Park Memorial Institute Medium (RPMI)-5% low IgG serum with 10 μg/ml IgG-Alexa Fluor® 647 (AF647). The cells were washed twice using the same medium, resuspended in phosphate-buffered saline (PBS)-1% bovine serum albumin (BSA), and acquired on Attune™ NxT Flow Cytometer. In some embodiments, mean fluorescence intensity of AF647 as well as […] AF647 positive in GFP positive gate are reported as readouts in this assay.

Structure (SMILES)	EC50
CC[C@H](C)[C@H](NC(=O)[C@H](CC(C)C)NC(=O)[C@H](CC(=O)O)NC(=O)[C@H](CO)NC(=O)[C@@H](NC(=O)[C@H](CCCNC(=N)N)NC(=O)[C@H](CCSC)NC(=O)[C@H](CO)NC(=O)[C@H](C)NC(=O)[C@H](CCC(=O)O)NC(=O)[C@H](C)NC(=O)[C@H](Cc1c[nH]cn1)NC(=O)CNC(=O)[C@H](CC(C)C)NC(=O)[C@H](CCC(=O)O)NC(=O)[C@H](CC(=O)O)NC(=O)[C@H](CC(C)C)NC(=O)[C@H](CC(C)C)NC(=O)[C@H](CCCNC(=N)N)NC(=O)[C@H](CCSC)NC(=O)[C@@H](NC(=O)[C@H](CCC(=O)O)NC(=O)[C@H](Cc1ccc(O)cc1)NC(=O)[C@@H](NC(=O)[C@H](CCCCN)NC(=O)[C@H](CCC(N)=O)NC(=O)[C@H](CC(C)C)NC(=O)[C@@H](NC(=O)[C@H](Cc1c[nH]c2ccccc12)NC(=O)[C@H](CCC(=O)O)NC(=O)[C@H](CCCCN)NC(=O)[C@H](CC(=O)O)NC(C)=O)[C@@H](C)CC)[C@@H](C)CC)[C@@H](C)CC)C(C)C)C(=O)N[C@@H](Cc1ccc(O)cc1)C(=O)N[C@@H](CCC(=O)O)C(=O)N[C@@H](Cc1ccccc1)C(=O)N[C@@H](CCSC)C(=O)N[C@@H](CCCCN)C(=O)N[C@@H](CCCCN)C(=O)NCC(=O)NCCOCCOCCOCCOCCOCCOCCOCCOCCC(=O)NCCOCCOCCOCCOCCOCCOCCOCCOCCNC(=O)[C@@H]1CSCC(=O)N[C@@H](C)C(=O)N[C@@H](CO)C(=O)N[C@@H](Cc2ccc(O)cc2)C(=O)N[C@@H](Cc2c[nH]cn2)C(=O)N[C@@H](CC(C)C)C(=O)NCC(=O)N[C@@H](CCC(=O)O)C(=O)N[C@@H](CC(C)C)C(=O)N[C@@H](C(C)C)C(=O)N[C@@H](Cc2c[nH]c3ccccc23)C(=O)N2Cc3ccccc3C[C@H]2C(=O)NC(C)(C)C(=O)N1 [Compound 160]	1.4 nM and 2.2 nM
CC[C@H](C)[C@H](NC(=O)[C@H](Cc1c[nH]c2ccccc12)NC(=O)[C@H](CCC(=O)O)NC(=O)[C@H](CCCCN)NC(=O)[C@H](CC(=O)O)NC(C)=O)C(=O)N[C@@H](CC(C)C)C(=O)N[C@@H](CCC(N)=O)C(=O)N[C@@H](CCCCN)C(=O)N[C@H](C(=O)N[C@@H](Cc1ccc(O)cc1)C(=O)N[C@@H](CCC(=O)O)C(=O)N[C@H](C(=O)N[C@@H](CCSC)C(=O)N[C@@H](CCCNC(=N)N)C(=O)N[C@@H](CC(C)C)C(=O)N[C@@H](CC(C)C)C(=O)N[C@@H](CC(=O)O)C(=O)N[C@@H](CCC(=O)O)C(=O)N[C@@H](CC(C)C)C(=O)NCC(=O)NCCOCCOCCOCCOCCOCCOCCOCCOCCC(=O)NCCOCCOCCOCCOCCOCCOCCOCCOCCC(=O)N[C@@H](CC(=O)O)C(=O)N[C@H]1CSSC[C@@H](C(=O)N[C@H](C(N)=O)[C@@H](C)O)NC(=O)[C@H](Cc2c[nH]c3ccccc23)NC(=O)[C@H](C(C)C)NC(=O)[C@H](CC(C)C)NC(=O)[C@H](CCC(=O)O)NC(=O)CNC(=O)[C@H](CC(C)C)NC(=O)[C@H](Cc2c[nH]cn2)NC(=O)[C@H](Cc2c[nH]c3ccccc23)NC(=O)[C@H](C)NC1=O)[C@@H](C)CC)[C@@H](C)CC [Compound 151]	> 10 nM
CC[C@H](C)[C@H](NC(=O)[C@H](CC(C)C)NC(=O)[C@H](CC(=O)O)NC(=O)[C@H](CO)NC(=O)[C@@H](NC(=O)[C@H](CCCNC(=N)N)NC(=O)[C@H](CCSC)NC(=O)[C@H](CO)NC(=O)[C@H](C)NC(=O)[C@H](CCC(=O)O)NC(=O)[C@H](C)NC(=O)[C@H](Cc1c[nH]cn1)NC(=O)CNC(=O)[C@H](CC(C)C)NC(=O)[C@H](CCC(=O)O)NC(=O)[C@H](CC(=O)O)NC(=O)[C@H](CC(C)C)NC(=O)[C@H](CC(C)C)NC(=O)[C@H](CCCNC(=N)N)NC(=O)[C@H](CCSC)NC(=O)[C@@H](NC(=O)[C@H](CCC(=O)O)NC(=O)[C@H](Cc1ccc(O)cc1)NC(=O)[C@@H](NC(=O)[C@H](CCCCN)NC(=O)[C@H](CCC(N)=O)NC(=O)[C@H](CC(C)C)NC(=O)[C@@H](NC(=O)[C@H](Cc1c[nH]c2ccccc12)NC(=O)[C@H](CCC(=O)O)NC(=O)[C@H](CCCCN)NC(=O)[C@H](CC(=O)O)NC(C)=O)[C@@H](C)CC)[C@@H](C)CC)[C@@H](C)CC)C(C)C)C(=O)N[C@@H](Cc1ccc(O)cc1)C(=O)N[C@@H](CCC(=O)O)C(=O)N[C@@H](Cc1ccccc1)C(=O)N[C@@H](CCSC)C(=O)N[C@@H](CCCCN)C(=O)N[C@@H](CCCCN)C(=O)NCC(=O)NCCOCCNC(=O)[C@@H]1CSCC(=O)N[C@@H](C)C(=O)N[C@@H](CO)C(=O)N[C@@H](Cc2ccc(O)cc2)C(=O)N[C@@H](Cc2c[nH]cn2)C(=O)N[C@@H](CC(C)C)C(=O)NCC(=O)N[C@@H](CCC(=O)O)C(=O)N[C@@H](CC(C)C)C(=O)N[C@@H](C(C)C)C(=O)N[C@@H](Cc2c[nH]c3ccccc23)C(=O)N2Cc3ccccc3C[C@H]2C(=O)NC(C)(C)C(=O)N1 [Compound 159]	3 nM and 2.8 nM
CC[C@H](C)[C@H](NC(=O)[C@H](CC(C)C)NC(=O)[C@H](CC(=O)O)NC(=O)[C@H](CO)NC(=O)[C@@H](NC(=O)[C@H](CCCNC(=N)N)NC(=O)[C@H](CCSC)NC(=O)[C@H](CO)NC(=O)[C@H](C)NC(=O)[C@H](CCC(=O)O)NC(=O)[C@H](C)NC(=O)[C@H](Cc1c[nH]cn1)NC(=O)CNC(=O)[C@H](CC(C)C)NC(=O)[C@H](CCC(=O)O)NC(=O)[C@H](CC(=O)O)NC(=O)[C@H](CC(C)C)NC(=O)[C@H](CC(C)C)NC(=O)[C@H](CCCNC(=N)N)NC(=O)[C@H](CCSC)NC(=O)[C@@H](NC(=O)[C@H](CCC(=O)O)NC(=O)[C@H](Cc1ccc(O)cc1)NC(=O)[C@@H](NC(=O)[C@H](CCCCN)NC(=O)[C@H](CCC(N)=O)NC(=O)[C@H](CC(C)C)NC(=O)[C@@H](NC(=O)[C@H](Cc1c[nH]c2ccccc12)NC(=O)[C@H](CCC(=O)O)NC(=O)[C@H](CCCCN)NC(=O)[C@H](CC(=O)O)NC(=O)CCOCCOCCOCCOCCNC(=O)CCCC[C@@H]1SC[C@@H]2NC(=O)N[C@@H]21)[C@@H](C)CC)[C@@H](C)CC)[C@@H](C)CC)C(C)C)C(=O)N[C@@H](Cc1ccc(O)cc1)C(=O)N[C@@H](CCC(=O)O)C(=O)N[C@@H](Cc1ccccc1)C(=O)N[C@@H](CCSC)C(=O)N[C@@H](CCCCN)C(=O)N[C@@H](CCCCN)C(=O)NCC(=O)O [Compound 209]	1.1 nM
CC[C@H](C)[C@H](NC(=O)[C@H](CC(C)C)NC(=O)[C@H](CC(=O)O)NC(=O)[C@H](CO)NC(=O)[C@@H](NC(=O)[C@H](CCCNC(=N)N)NC(=O)[C@H](CCSC)NC(=O)[C@H](CO)NC(=O)[C@H](C)NC(=O)[C@H](CCC(=O)O)NC(=O)[C@H](C)NC(=O)[C@H](Cc1c[nH]cn1)NC(=O)CNC(=O)[C@H](CC(C)C)NC(=O)[C@H](CCC(=O)O)NC(=O)[C@H](CC(=O)O)NC(=O)[C@H](CC(C)C)NC(=O)[C@H](CC(C)C)NC(=O)[C@H](CCCNC(=N)N)NC(=O)[C@H](CCSC)NC(=O)[C@@H](NC(=O)[C@H](CCC(=O)O)NC(=O)[C@H](Cc1ccc(O)cc1)NC(=O)[C@@H](NC(=O)[C@H](CCCCN)NC(=O)[C@H](CCC(N)=O)NC(=O)[C@H](CC(C)C)NC(=O)[C@@H](NC(=O)[C@H](Cc1c[nH]c2ccccc12)NC(=O)[C@H](CCC(=O)O)NC(=O)[C@H](CCCCN)NC(=O)[C@H](CC(=O)O)NC(C)=O)[C@@H](C)CC)[C@@H](C)CC)[C@@H](C)CC)C(C)C)C(=O)N[C@@H](Cc1ccc(O)cc1)C(=O)N[C@@H](CCC(=O)O)C(=O)N[C@@H](Cc1ccccc1)C(=O)N[C@@H](CCSC)C(=O)N[C@@H](CCCCN)C(=O)N[C@@H](CCCCN)C(=O)NCC(=O)NCCOCCOCCOCCOCCOCCOCCOCCOCCNC(=O)[C@@H]1CSCC(=O)N[C@@H](C)C(=O)N[C@@H](CO)C(=O)N[C@@H](Cc2ccc(O)cc2)C(=O)N[C@@H](Cc2c[nH]cn2)C(=O)N[C@@H](CC(C)C)C(=O)NCC(=O)N[C@@H](CCC(=O)O)C(=O)N[C@@H](CC(C)C)C(=O)N[C@@H](C(C)C)C(=O)N[C@@H](Cc2c[nH]c3ccccc23)C(=O)N2Cc3ccccc3C[C@H]2C(=O)NC(C)(C)C(=O)N1 [Compound 161]	2.2 nM
CC[C@H](C)[C@H](NC(=O)[C@H](Cc1c[nH]c2ccccc12)NC(=O)[C@H](CCC(=O)O)NC(=O)[C@H](CCCCN)NC(=O)[C@H](CC(=O)O)NC(C)=O)C(=O)N[C@@H](CC(C)C)C(=O)N[C@@H](CCC(N)=O)C(=O)N[C@@H](CCCCN)C(=O)N[C@H](C(=O)N[C@@H](Cc1ccc(O)cc1)C(=O)N[C@@H](CCC(=O)O)C(=O)N[C@H](C(=O)N[C@@H](CCSC)C(=O)N[C@@H](CCCNC(=N)N)C(=O)N[C@@H](CC(C)C)C(=O)N[C@@H](CC(C)C)C(=O)N[C@@H](CC(=O)O)C(=O)N[C@@H](CCC(=O)O)C(=O)N[C@@H](CC(C)C)C(=O)NCC(=O)N[C@@H](Cc1c[nH]cn1)C(=O)N[C@@H](C)C(=O)N[C@@H](CCC(=O)O)C(=O)N[C@@H](C)C(=O)N[C@@H](CO)C(=O)NCCOCCOCCOCCOCCOCCOCCOCCOCCC(=O)NCCOCCOCCOCCOCCOCCOCCOCCOCCC(=O)N[C@@H](CC(=O)O)C(=O)N[C@H]1CSSC[C@@H](C(=O)N[C@H](C(N)=O)[C@@H](C)O)NC(=O)[C@H](Cc2c[nH]c3ccccc23)NC(=O)[C@H](C(C)C)NC(=O)[C@H](CC(C)C)NC(=O)[C@H](CCC(=O)O)NC(=O)CNC(=O)[C@H](CC(C)C)NC(=O)[C@H](Cc2c[nH]cn2)NC(=O)[C@H](Cc2c[nH]c3ccccc23)NC(=O)[C@H](C)NC1=O)[C@@H](C)CC)[C@@H](C)CC [Compound 152]	> 100 nM
